Non-standard residues stand in square brackets, D forms with d. Residues, ends and D or L forms follow the SMILES beside them. pY = N[C@@H](Cc1ccc(OP(=O)(O)O)cc1)C(=O)O
Legend:
Test in all cases: biochemical
Assay type in all cases: binding
SHF = molecular target: T1, SHF (Homo sapiens, UniProt Q7M4L6)
T1 construct: made in house; host or cells: HEK293 (transient transfection), unpurified extract
T1 sequence (Q7M4L6 1-423): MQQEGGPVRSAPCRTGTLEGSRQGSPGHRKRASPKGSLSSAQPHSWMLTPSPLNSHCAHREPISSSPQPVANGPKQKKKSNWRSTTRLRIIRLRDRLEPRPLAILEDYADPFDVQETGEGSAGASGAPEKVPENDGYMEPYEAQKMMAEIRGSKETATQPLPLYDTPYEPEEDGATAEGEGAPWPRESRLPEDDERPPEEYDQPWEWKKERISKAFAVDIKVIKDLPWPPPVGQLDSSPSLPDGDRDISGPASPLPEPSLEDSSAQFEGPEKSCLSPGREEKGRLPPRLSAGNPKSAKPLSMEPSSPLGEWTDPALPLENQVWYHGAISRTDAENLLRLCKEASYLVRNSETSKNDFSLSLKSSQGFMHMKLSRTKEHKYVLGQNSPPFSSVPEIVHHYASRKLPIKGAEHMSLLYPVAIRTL

PLCG2(SH2dom.C-term.) = molecular target: T2, PLCG2(SH2dom.C-term.) (Homo sapiens, UniProt P16885)
T2 construct: SH2dom.C-term. denotes SH2 domain closest to C-terminus of protein; made in house; host or cells: HEK293 (transient transfection, unpurified extract)
T2 sequence (P16885 646-735 limits assumed): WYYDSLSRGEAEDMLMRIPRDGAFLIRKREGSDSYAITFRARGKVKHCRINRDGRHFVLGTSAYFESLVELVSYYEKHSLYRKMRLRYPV

MATK = molecular target: T3, MATK (Homo sapiens, UniProt P42679)
T3 construct: the DNA-tagged SH2 domain concentrations used in this study were <0.1 nM; made in house; host or cells: HEK293 (transient transfection, unpurified extract)
T3 sequence (P42679 122-211 limits assumed): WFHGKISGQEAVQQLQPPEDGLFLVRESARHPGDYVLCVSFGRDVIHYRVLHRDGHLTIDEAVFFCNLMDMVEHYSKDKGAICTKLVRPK

SHC2 = molecular target: T4, SHC2 (Homo sapiens, UniProt P98077)
T4 construct: made in house; host or cells: HEK293 (transient transfection), unpurified extract
T4 sequence (P98077 1-582): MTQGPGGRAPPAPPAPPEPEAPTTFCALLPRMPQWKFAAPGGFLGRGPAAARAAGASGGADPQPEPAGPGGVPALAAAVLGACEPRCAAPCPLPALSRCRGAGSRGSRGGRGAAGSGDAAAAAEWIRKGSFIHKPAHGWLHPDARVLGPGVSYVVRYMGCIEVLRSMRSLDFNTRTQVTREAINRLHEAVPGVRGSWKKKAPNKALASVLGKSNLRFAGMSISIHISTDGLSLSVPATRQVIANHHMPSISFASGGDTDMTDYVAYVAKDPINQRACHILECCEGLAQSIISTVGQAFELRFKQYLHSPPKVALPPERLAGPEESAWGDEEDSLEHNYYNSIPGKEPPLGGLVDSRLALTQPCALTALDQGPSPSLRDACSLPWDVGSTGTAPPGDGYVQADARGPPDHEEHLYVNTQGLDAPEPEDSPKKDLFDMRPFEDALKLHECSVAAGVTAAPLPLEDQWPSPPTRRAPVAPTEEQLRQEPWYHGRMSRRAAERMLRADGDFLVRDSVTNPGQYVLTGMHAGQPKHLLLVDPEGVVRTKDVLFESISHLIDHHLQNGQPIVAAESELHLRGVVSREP

SHC4 = molecular target: T5, SHC4 (Homo sapiens, UniProt Q6S5L8)
T5 construct: made in house; host or cells: HEK293 (transient transfection), unpurified extract
T5 sequence (Q6S5L8 1-630): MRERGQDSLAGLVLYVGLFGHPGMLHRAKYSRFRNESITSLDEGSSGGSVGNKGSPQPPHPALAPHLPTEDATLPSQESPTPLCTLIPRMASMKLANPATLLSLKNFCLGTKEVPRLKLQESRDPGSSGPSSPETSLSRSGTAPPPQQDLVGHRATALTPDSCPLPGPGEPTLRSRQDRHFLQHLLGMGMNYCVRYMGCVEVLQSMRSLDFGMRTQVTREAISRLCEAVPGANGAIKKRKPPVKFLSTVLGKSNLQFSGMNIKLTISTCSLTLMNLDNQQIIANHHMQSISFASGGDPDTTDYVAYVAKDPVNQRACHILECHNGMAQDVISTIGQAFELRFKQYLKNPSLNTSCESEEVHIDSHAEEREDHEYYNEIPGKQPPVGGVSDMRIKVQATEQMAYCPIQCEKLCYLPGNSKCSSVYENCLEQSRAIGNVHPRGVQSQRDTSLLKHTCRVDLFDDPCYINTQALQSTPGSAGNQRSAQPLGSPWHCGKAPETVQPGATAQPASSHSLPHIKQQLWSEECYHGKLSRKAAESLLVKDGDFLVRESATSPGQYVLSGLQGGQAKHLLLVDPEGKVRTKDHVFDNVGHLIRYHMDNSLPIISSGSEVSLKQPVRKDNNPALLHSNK

SHC1 = molecular target: T6, SHC1 (Homo sapiens, UniProt P29353)
T6 construct: made in house; host or cells: HEK293 (transient transfection), unpurified extract
T6 sequence (P29353 1-583): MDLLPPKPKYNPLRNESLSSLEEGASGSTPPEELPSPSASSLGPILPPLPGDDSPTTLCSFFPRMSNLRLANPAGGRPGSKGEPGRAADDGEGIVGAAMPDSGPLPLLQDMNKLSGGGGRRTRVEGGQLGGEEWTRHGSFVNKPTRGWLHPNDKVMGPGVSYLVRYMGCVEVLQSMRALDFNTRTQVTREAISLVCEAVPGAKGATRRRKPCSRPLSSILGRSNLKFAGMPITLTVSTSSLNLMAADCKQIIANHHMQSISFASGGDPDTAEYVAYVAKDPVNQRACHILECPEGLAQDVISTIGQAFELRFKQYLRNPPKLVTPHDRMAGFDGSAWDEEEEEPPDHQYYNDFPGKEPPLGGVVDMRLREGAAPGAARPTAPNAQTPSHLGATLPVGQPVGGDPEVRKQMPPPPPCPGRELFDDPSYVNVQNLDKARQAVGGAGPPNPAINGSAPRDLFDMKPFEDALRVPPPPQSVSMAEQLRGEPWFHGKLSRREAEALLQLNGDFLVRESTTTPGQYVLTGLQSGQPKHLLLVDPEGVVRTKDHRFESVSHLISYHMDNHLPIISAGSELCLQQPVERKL

SHC3 = molecular target: T7, SHC3 (Homo sapiens, UniProt Q92529)
T7 construct: made in house; host or cells: HEK293 (transient transfection), unpurified extract
T7 sequence (Q92529 1-594): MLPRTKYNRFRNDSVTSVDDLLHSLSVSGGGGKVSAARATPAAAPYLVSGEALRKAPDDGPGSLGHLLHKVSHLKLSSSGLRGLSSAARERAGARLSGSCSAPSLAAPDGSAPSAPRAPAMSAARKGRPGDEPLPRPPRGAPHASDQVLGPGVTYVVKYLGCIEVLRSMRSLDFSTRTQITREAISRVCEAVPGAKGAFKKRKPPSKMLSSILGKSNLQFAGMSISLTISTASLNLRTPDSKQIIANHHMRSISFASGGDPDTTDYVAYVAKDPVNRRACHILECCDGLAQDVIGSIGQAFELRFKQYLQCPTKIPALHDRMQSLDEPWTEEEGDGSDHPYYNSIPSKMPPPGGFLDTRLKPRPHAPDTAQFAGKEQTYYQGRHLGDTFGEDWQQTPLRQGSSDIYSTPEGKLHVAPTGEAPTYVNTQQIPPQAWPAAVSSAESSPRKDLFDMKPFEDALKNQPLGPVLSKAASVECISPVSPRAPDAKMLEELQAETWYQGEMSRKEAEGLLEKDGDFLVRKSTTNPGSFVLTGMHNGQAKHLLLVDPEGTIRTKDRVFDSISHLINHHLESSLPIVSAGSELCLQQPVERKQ

CC[C@H](C)[C@H](NC(=O)[C@@H](NC(=O)[C@H](Cc1ccc(OP(=O)(O)O)cc1)NC(=O)[C@H](CO)NC(=O)[C@H](CCCNC(=N)N)NC(=O)[C@@H](NC(=O)[C@H](CO)NC(=O)[C@H](CCC(=O)O)NC(=O)[C@H](CCCCN)NC(=O)[C@H](CCCCN)NC(=O)[C@H](CCCCN)NC(=O)[C@H](CCCCN)NC(C)=O)[C@@H](C)O)C(C)C)C(=O)N[C@@H](CC(C)C)C(=O)N[C@@H](CO)C(=O)N[C@@H](Cc1ccccc1)C(=O)N[C@@H](CCC(=O)O)C(=O)N[C@@H](CC(N)=O)C(=O)N[C@@H](CC(N)=O)C(=O)NCC(N)=O (Ac-KKKKESTRS[pY]VILSFENNG-NH2)
Kd (SHF): 1.47 ± 0.88 µM | Kd (PLCG2(SH2dom.C-term.)): 0.0109 ± 0.00709 µM

CC[C@H](C)[C@H](NC(=O)[C@H](CS)NC(=O)[C@H](CCCNC(=N)N)NC(C)=O)C(=O)N[C@@H](CC(N)=O)C(=O)N[C@@H](Cc1ccc(OP(=O)(O)O)cc1)C(=O)N[C@H](C(=O)N[C@@H](Cc1ccccc1)C(=O)N[C@@H](Cc1ccccc1)C(=O)N1CCC[C@H]1C(=O)N[C@@H](CO)C(=O)N[C@@H](CC(C)C)C(=O)N[C@@H](CCCCN)C(=O)N1CCC[C@H]1C(=O)N[C@@H](CO)C(=O)N[C@@H](CO)C(N)=O)C(C)C
Kd (MATK): 0.555 ± 0.128 µM

CC(=O)N[C@@H](CCC(=O)O)C(=O)N[C@@H](CC(N)=O)C(=O)N[C@@H](C)C(=O)N[C@@H](CCC(=O)O)C(=O)N[C@@H](Cc1ccc(OP(=O)(O)O)cc1)C(=O)N[C@@H](CC(C)C)C(=O)N[C@@H](CCCNC(=N)N)C(=O)N[C@H](C(=O)N[C@@H](C)C(N)=O)C(C)C [Ac-ENAEpYLRVA-NH2] (Ac-ENAE[pY]LRVA-NH2)
Kd (SHC2): 4.39 ± 0.413 µM | Kd (SHC4): 6.63 ± 0.773 µM | Kd (SHC1): 11 ± 1.26 µM | Kd (SHC3): 3.78 ± 0.472 µM

— paper PMC12951562, “SH2scan: Mapping SH2 Domain-Ligand Binding Selectivity for Inhibitors and Degraders” (Journal of Medicinal Chemistry, 2026)
